{"source": "ChEMBL document CHEMBL2429800", "about": "“A new trypsin inhibitory phthalic acid ester from Heliotropium strigosum” (Med Chem Res, 2013)", "biological_target": "Trypsin (Homo sapiens, UniProt P07477+P07478+P35030)", "assay": "Competitive inhibition of trypsin (unknown origin) using […] as substrate incubated for 20 mins prior to substrate addition by Dixon plot/ Lineweaver-Burk plot analysis", "assay_type": "protein assay"}
{"smiles": "CCCCCCCCC(CC)COC(=O)c1ccccc1C(=O)OCC(CC)CCCCCCCC", "note": "(configuration not stated)", "values": [{"measurement": "Ki", "result": 12.1, "unit": "µM"}]}
{"smiles": "O=S(=O)(F)Cc1ccccc1", "note": "[PHENYLMETHYLSULFONYLFLUORIDE]", "values": [{"measurement": "Ki", "result": 10.01, "unit": "µM"}]}
